Among the test systems are KM12 colon; M14 melanoma; OVCAR-8 ovarian; SF-268 CNS; SNB-19 CNS; TK-10 renal; U251 CNS; A498 renal; HOP-92 NSCLC; MDA-MB-435.
Holding throughout (experiment): inhibition of tumour cell growth, NCI panel, 48 h

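Method: 48-hour compound exposure of cells in 96-well plates, five concentrations, linear interpolation of endpoints. At the TGI there is no net growth.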

For `CC(=O)OC12c3ccccc3C(c3ccccc31)C1C(=O)N(c3ccccn3)C(=O)C12` (stereo unspecified), the TGI in the experiment on KM12 colon, in the experiment on M14 melanoma, in the experiment on OVCAR-8 ovarian, with SF-268 CNS, with SNB-19 CNS and with TK-10 renal was greater than 100 µM throughout. The TGI with U251 CNS was greater than 100 µM.
Consider `CCOC(=O)CCC1(C(=O)OCC)CCCC1=O` (stereo unspecified), for which the TGI in the experiment on A498 renal, in the experiment on HOP-92 NSCLC, with KM12 colon, in the experiment with M14 melanoma, with OVCAR-8 ovarian and in the experiment on SF-268 CNS was greater than 100 µM throughout. For the same compound, the TGI in the experiment with SNB-19 CNS, with TK-10 renal and with U251 CNS was greater than 100 µM throughout.
`COc1ccc2nc3c(c(NCCCN(C)C)c2c1)CCCC3`: the TGI is 36.3 µM in the experiment with A498 renal; 21.1 µM with HOP-92 NSCLC; 33 µM with KM12 colon; 26.1 µM in the experiment with M14 melanoma; 36.4 µM in the experiment on OVCAR-8 ovarian; 48.8 µM in the experiment on SNB-19 CNS. Also, the TGI is greater than 100 µM in the experiment with TK-10 renal and 30.1 µM in the experiment on U251 CNS.
On to `O=c1c2ccccc2nc(-c2ccccc2)n1NC(=S)Nc1ccc(Cl)cc1`, for which the TGI with A498 renal, in the experiment with HOP-92 NSCLC, with KM12 colon, in the experiment on M14 melanoma, in the experiment on OVCAR-8 ovarian and in the experiment with SF-268 CNS was greater than 100 µM in each case. In addition, the TGI in the experiment on TK-10 renal and with U251 CNS was greater than 100 µM throughout.
On to `CN(C)CCNC(=O)c1cccc2cc3cc(O)ccc3nc12`, for which the TGI amounted to 2.42 µM with A498 renal; 3.81 µM with HOP-92 NSCLC; 10.4 µM with KM12 colon; 3.34 µM in the experiment on OVCAR-8 ovarian; 5.66 µM in the experiment on SF-268 CNS; 3.53 µM in the experiment on SNB-19 CNS. Also, in the experiment on U251 CNS, the TGI was determined as 4.46 µM.
On to `CS(=O)(=O)c1nc(-c2cc3c(c(S(C)(=O)=O)n2)CCC3)cc2c1CCCC2`, for which the TGI with KM12 colon is greater than 100 µM; in the experiment on M14 melanoma, greater than 100 µM; in the experiment on MDA-MB-435, greater than 100 µM; with OVCAR-8 ovarian it was 57.9 µM; in the experiment with SF-268 CNS, 24.4 µM; with SNB-19 CNS, greater than 100 µM. In addition, the TGI in the experiment on TK-10 renal and with U251 CNS was greater than 100 µM each time.
As for `Cc1ccc(N(O)C(C)(C)C)cc1`, the TGI in the experiment with A498 renal, in the experiment on HOP-92 NSCLC, in the experiment on KM12 colon, in the experiment on OVCAR-8 ovarian, with SF-268 CNS and in the experiment with SNB-19 CNS was greater than 100 µM each time. In the experiment with U251 CNS, the TGI was greater than 100 µM.
Regarding `Cc1cc(C)nc(/C(=N\NC(N)=O)C(=O)Nc2nc3ccc(C)cc3s2)c1`, the TGI in the experiment with A498 renal, in the experiment on HOP-92 NSCLC, with KM12 colon, in the experiment on M14 melanoma, in the experiment on OVCAR-8 ovarian and in the experiment on SF-268 CNS was greater than 100 µM in each case. Besides, the TGI in the experiment with SNB-19 CNS, in the experiment with TK-10 renal and with U251 CNS was greater than 100 µM throughout.
Consider `C[S+](C)CC1OC(n2cnc3c(N)ncnc32)C(O)C1O` (stereo unspecified), for which the TGI in the experiment with A498 renal, in the experiment with HOP-92 NSCLC, in the experiment on KM12 colon, with OVCAR-8 ovarian, in the experiment with SF-268 CNS and in the experiment with SNB-19 CNS was greater than 225 µM in each case. Also, the TGI in the experiment on U251 CNS was greater than 225 µM.
`CC1(C)C2CCC3(OCCO3)C1C(O)C2` (stereo unspecified): the TGI in the experiment on A498 renal, in the experiment on HOP-92 NSCLC, in the experiment on KM12 colon, in the experiment on M14 melanoma, with OVCAR-8 ovarian and in the experiment on SF-268 CNS was greater than 100 µM throughout. The TGI in the experiment with SNB-19 CNS, in the experiment with TK-10 renal and in the experiment on U251 CNS was greater than 100 µM throughout.
`O=NN(CCF)C(=O)NC1CC2CCC1C2` (stereo unspecified): the TGI in the experiment with A498 renal, with HOP-92 NSCLC, in the experiment on KM12 colon, with OVCAR-8 ovarian, in the experiment with SF-268 CNS and in the experiment with SNB-19 CNS was greater than 100 µM throughout. In the experiment with U251 CNS, the TGI was greater than 100 µM.
Regarding `COC(=O)C1=C(O)C(C(=O)OC)[C@]2(O)[C@@H](C(=O)OC)[C@H]1C[C@@H](c1ccccc1)[C@@H]2C(=O)OC` (stereo partly specified), the TGI in the experiment on A498 renal was determined as 35.2 µM; with KM12 colon it was 25.8 µM; in the experiment with M14 melanoma, 24.5 µM; in the experiment with MDA-MB-435 it was 30.6 µM; in the experiment with SF-268 CNS, 8.12 µM; in the experiment on SNB-19 CNS, 68.7 µM. In addition, the TGI in the experiment with TK-10 renal worked out at 53.5 µM; in the experiment on U251 CNS, 30.7 µM.
In the case of `CCC(COC(=O)CC[C@@H](NC(=O)C(C)NC(=O)C(C)OC1C(O)C(CO)OC(OCc2ccccc2)C1NC(C)=O)C(N)=O)NC1c2ccccc2Nc2cccc([N+](=O)[O-])c21` (stereo partly specified), the TGI in the experiment with HOP-92 NSCLC, with KM12 colon, in the experiment on M14 melanoma, in the experiment with OVCAR-8 ovarian, in the experiment with SF-268 CNS and with SNB-19 CNS was greater than 100 µM throughout. For the same compound, the TGI in the experiment with TK-10 renal and in the experiment with U251 CNS was greater than 100 µM in each case.
`COc1ccc2c(c1)OCCc1cn[nH]c1-2`: the TGI in the experiment with A498 renal was 86.1 µM; with HOP-92 NSCLC it was 61.6 µM; with KM12 colon it was greater than 100 µM; in the experiment on OVCAR-8 ovarian it was greater than 100 µM; in the experiment on SF-268 CNS, greater than 100 µM; in the experiment on SNB-19 CNS, greater than 100 µM. Besides, the TGI in the experiment with U251 CNS was greater than 100 µM.
`Nc1ccc(Nc2cc(=O)[nH]c(=O)[nH]2)cc1`: the TGI with A498 renal, in the experiment on KM12 colon, in the experiment with MDA-MB-435, in the experiment with OVCAR-8 ovarian, in the experiment with SF-268 CNS and in the experiment on SNB-19 CNS was greater than 100 µM each time. The TGI in the experiment on TK-10 renal and in the experiment with U251 CNS was greater than 100 µM in each case.
As to `COc1cccc(/C(Cl)=C(\C=O)c2cccc(OC)c2)c1`, the TGI came to 36.3 µM in the experiment on A498 renal; 36 µM in the experiment with HOP-92 NSCLC; 26.3 µM with KM12 colon; 26.1 µM in the experiment with M14 melanoma; 30.5 µM with OVCAR-8 ovarian; 21.2 µM in the experiment on SF-268 CNS. Besides, the TGI worked out at 38.2 µM with SNB-19 CNS, 51.2 µM in the experiment with TK-10 renal and 22.2 µM in the experiment with U251 CNS.

The record behind these values is PubChem BioAssay (NCI).
